US8952024B2, “Herbicidal pyrimidone derivatives” (E I du Pont de Nemours and Company, priority 2009, dated 2015)

Assays:
Format in all cases: in vivo
[1] = tested on: cocklebur (Xanthium strumarium); experiment: Test B pre-/postemergence plant response
Source text: (§1) Seeds of plant species selected from blackgrass (Alopecurus myosuroides), downy bromegrass (Bromus tectorum), green foxtail (Setaria viridis), Italian ryegrass (Lolium multiflorum), wheat (Triticum aestivum), wild oat (Avena fatua), deadnettle (henbit deadnettle, Lamium amplexicaule), galium (catchweed bedstraw, Galium aparine), bermudagrass (Cynodon dactylon), Surinam grass (Brachiaria decumbens), cocklebur (Xanthium strumarium), corn (Zea mays), large crabgrass (Digitaria sanguinalis), woolly cupgrass (Eriochloa villosa), giant foxtail (Setaria faberii), goosegrass (Eleusine indica), johnsongrass (Sorghum halepense), kochia (Kochia scoparia), lambsquarters (Chenopodium album), morningglory (Ipomoea coccinea), nightshade (eastern black nightshade, Solanum ptycanthum), yellow nutsedge (Cyperus esculentus), pigweed (Amaranthus retroflexus), ragweed (common ragweed, Ambrosia elatior), Russian thistle (Salsola kali), soybean (Glycine max), sunflower (common oilseed sunflower, Helianthus annuus) and velvetleaf (Abutilon theophrasti) were planted into a blend of loam soil and sand and treated preemergence with test compounds formulated in a non-phytotoxic solvent mixture which included a surfactant.
(§2) At the same time, plants selected from these crop and weed species and also winter barley (Hordeum vulgare), canarygrass (Phalaris minor), chickweed (Stellaria media) and windgrass (Apera spica-venti) were planted in pots containing Redi-Earth® planting medium (Scotts Company, 14111 Scottslawn Road, Marysville, Ohio 43041) comprising spaghnum peat moss, vermiculite, wetting agent and starter nutrients and treated with postemergence applications of some of the test chemicals formulated in the same manner. Plants ranged in height from 2 to 18 cm (1- to 4-leaf stage) for postemergence treatments.
(§3) Treated plants and controls were maintained in a greenhouse for 13 to 15 days, after which time all treated plants were visually evaluated and compared to controls. Plant response ratings, summarized in Table B, are based on a scale of 0 to 100 where 0 is no effect and 100 is complete control. A dash (-) response means no test result.

[2] = tested on: giant foxtail (Setaria faberii); experiment: Test B pre-/postemergence plant response
Source text: as §1, §2, §3

[3] = tested on: green foxtail (Setaria viridis); experiment: Test B pre-/postemergence plant response
Source text: as §1, §2, §3

[4] = tested on: barnyardgrass (Echinochloa crus-galli); experiment: Test A pre-/postemergence plant response
Outline: (§4)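 Plants grown from seed in a loam soil and sand mix received test compounds both as a preemergence soil spray and, at the same time, as a postemergence spray at the one- to two-leaf stage. Injury was judged visually against untreated controls roughly ten days later, 0 meaning no effect and 100 complete control.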

[5] = tested on: wheat (Triticum aestivum); experiment: Test A pre-/postemergence plant response
Outline: as §4

[6] = tested on: giant foxtail (Setaria faberii); experiment: Test A pre-/postemergence plant response
Outline: as §4

[7] = tested on: pigweed (Amaranthus retroflexus); experiment: Test A pre-/postemergence plant response
Outline: as §4

corn (Zea mays) = experiment: Test A pre-/postemergence plant response
Outline: as §4

[8] = tested on: large crabgrass (Digitaria sanguinalis); experiment: Test A pre-/postemergence plant response
Outline: as §4

[9] = tested on: velvetleaf (Abutilon theophrasti); experiment: Test A pre-/postemergence plant response
Outline: as §4

[10] = tested on: morningglory (Ipomoea spp.); experiment: Test A pre-/postemergence plant response
Outline: as §4

[11] = Postemergence, 31 g ai/ha, 0 to 100 scale (0 no effect, 100 complete control)
[12] = Postemergence, 125 g ai/ha, scale 0 to 100 (0 no effect, 100 complete control)
[13] = Postemergence, 250 g ai/ha, scale 0 to 100 (0 no effect, 100 complete control), 13 to 15 days
[14] = Postemergence, 62 g ai/ha, scale 0 to 100 (0 no effect, 100 complete control)
[15] = Postemergence, 125 g ai/ha, 0 to 100 scale where 0 is no effect and 100 is complete control
[16] = Postemergence, 500 g ai/ha, visual injury, 0 to 100 scale (0 no effect, 100 complete control), approx. ten days
[17] = Preemergence, 125 g ai/ha, 0 to 100 scale, 0 = no effect, 100 = complete control
[18] = Preemergence, 500 g ai/ha, 0 to 100 scale, 0 = no effect, 100 = complete control
[19] = 250 g ai/ha, Preemergence, 0 to 100 scale
[20] = Preemergence, 31 g ai/ha, scale 0 to 100 (0 no effect, 100 complete control)
[21] = Preemergence, 125 g ai/ha, 0 to 100 scale
[22] = Postemergence, 31 g ai/ha, scale 0 to 100 (0 no effect, 100 complete control)
[23] = Postemergence, 62 g ai/ha, scale 0 (no effect) to 100 (complete control), 13 to 15 days
[24] = Postemergence, 125 g ai/ha, visual rating after 13 to 15 days, scale 0 (no effect) to 100 (complete control)
[25] = Postemergence, 250 g ai/ha, scale 0 to 100
[26] = Preemergence, 62 g ai/ha, scale 0 to 100, 0 no effect, 100 complete control
[27] = Postemergence, 125 g ai/ha, visual injury, 0 to 100 scale (0 no effect, 100 complete control), approx. ten days
[28] = Postemergence, 500 g ai/ha, 0 to 100 scale, 0 = no effect, 100 = complete control, approx. ten days
[29] = Preemergence, 500 g ai/ha, visual injury, 0 to 100 scale (0 no effect, 100 complete control), approx. ten days

CCCn1c(-c2ccccc2)ncc(C(=O)C2=C(O)C3CCC(C3)C2=O)c1=O (centres unmarked) [Compound 226] was tested, and the “Plant response rating, Cocklebur” value [1, 11] was 98, the “Plant response rating, Cocklebur” value [1, 12] was 100 and the “Plant response rating, Cocklebur” value [1, 13] was 100. For the same molecule, the “Plant response rating, Cocklebur” value [1, 14] was 98, the “Plant response rating, Foxtail, Giant” value [2, 11] was 85 and the “Plant response rating, Foxtail, Giant” value [2, 12] was 95. For the same molecule, the “Plant response rating, Foxtail, Giant” value [2, 13] was 95, the “Plant response rating, Foxtail, Giant” value [2, 14] was 90 and the “Plant response rating, Foxtail, Green” value [3, 11] was 70. The “Plant response rating, Foxtail, Green” value [3, 12] was 90, the “Plant response rating, Foxtail, Green” value [3, 13] was 90 and the “Plant response rating, Foxtail, Green” value [3, 14] was 80. For the same molecule, the “Plant response rating, Barnyardgrass” value [4, 15] was 90, the “Barnyardgrass plant response rating” value [4, 16] was 90 and the “Plant response rating, Barnyardgrass” value [4, 17] was 30. The “Plant response rating, Barnyardgrass” value [4, 18] was 100, the “Plant response rating, Wheat” value [5, 15] was 0 and the “Wheat plant response rating” value [5, 16] was 50. The “Plant response rating, Wheat” value [5, 17] was 0, the “Plant response rating, Wheat” value [5, 18] was 10 and the “Plant response rating, Foxtail, Giant” value [6, 15] was 90. The “Foxtail, Giant plant response rating” value [6, 16] was 90, the “Plant response rating, Foxtail, Giant” value [6, 17] was 70 and the “Plant response rating, Foxtail, Giant” value [6, 18] was 90. The “Plant response rating, Pigweed” value [7, 15] was 100, the “Pigweed plant response rating” value [7, 16] was 100 and the “Plant response rating, Pigweed” value [7, 17] was 100. The “Plant response rating, Pigweed” value [7, 18] was 100, the “Plant response rating, Corn” value (corn (Zea mays); [15]) was 10 and the “Corn plant response rating” value (corn (Zea mays); [16]) was 60. The “Plant response rating, Corn” value (corn (Zea mays); [17]) was 0, the “Plant response rating, Corn” value (corn (Zea mays); [18]) was 0 and the “Plant response rating, Crabgrass, Large” value [8, 15] was 90. The “Crabgrass, Large plant response rating” value [8, 16] was 100, the “Plant response rating, Crabgrass, Large” value [8, 17] was 90 and the “Plant response rating, Crabgrass, Large” value [8, 18] was 100. The “Plant response rating, Velvetleaf” value [9, 15] was 100, the “Velvetleaf plant response rating” value [9, 16] was 100 and the “Plant response rating, Velvetleaf” value [9, 17] was 80. The “Plant response rating, Velvetleaf” value [9, 18] was 100, the “Plant response rating, Morningglory” value [10, 15] was 100 and the “Morningglory plant response rating” value [10, 16] was 100. For the same molecule, the “Plant response rating, Morningglory” value [10, 17] was 60 and the “Plant response rating, Morningglory” value [10, 18] was 80.
O=C1CCCC(O)=C1C(=O)c1cnc(-c2ccccc2)n(-c2ccccc2Br)c1=O [Compound 37] was tested, and the “Plant response rating, Cocklebur” value [1, 19] was 45, the “Plant response rating, Cocklebur” value [1, 20] was 0 and the “Cocklebur plant response rating” value [1, 21] was 0. The “Plant response rating, Foxtail, Giant” value [2, 19] was 75, the “Plant response rating, Foxtail, Giant” value [2, 22] was 70 and the “Plant response rating, Foxtail, Giant” value [2, 23] was 85. For the same molecule, the “Plant response rating, Foxtail, Giant” value [2, 24] was 95, the “Foxtail, Giant plant response rating” value [2, 25] was 100 and the “Plant response rating, Foxtail, Giant” value [2, 20] was 0. For the same molecule, the “Plant response rating, Foxtail, Giant” value [2, 26] was 0, the “Foxtail, Giant plant response rating” value [2, 21] was 0 and the “Plant response rating, Foxtail, Green” value [3, 19] was 90. For the same molecule, the “Plant response rating, Foxtail, Green” value [3, 22] was 60, the “Plant response rating, Foxtail, Green” value [3, 23] was 65 and the “Plant response rating, Foxtail, Green” value [3, 24] was 85. The “Foxtail, Green plant response rating” value [3, 25] was 95, the “Plant response rating, Foxtail, Green” value [3, 20] was 0 and the “Plant response rating, Foxtail, Green” value [3, 26] was 0. The “Foxtail, Green plant response rating” value [3, 21] was 0, the “Barnyardgrass plant response rating” value [4, 27] was 50 and the “Plant response rating, Barnyardgrass” value [4, 28] was 90. For the same molecule, the “Plant response rating, Barnyardgrass” value [4, 17] was 0, the “Plant response rating, Barnyardgrass” value [4, 29] was 30 and the “Wheat plant response rating” value [5, 27] was 0. For the same molecule, the “Plant response rating, Wheat” value [5, 28] was 0, the “Plant response rating, Wheat” value [5, 17] was 0 and the “Plant response rating, Wheat” value [5, 29] was 0. The “Foxtail, Giant plant response rating” value [6, 27] was 70, the “Plant response rating, Foxtail, Giant” value [6, 28] was 90 and the “Plant response rating, Foxtail, Giant” value [6, 17] was 10. The “Plant response rating, Foxtail, Giant” value [6, 29] was 50, the “Pigweed plant response rating” value [7, 27] was 100 and the “Plant response rating, Pigweed” value [7, 28] was 100. The “Plant response rating, Pigweed” value [7, 17] was 50, the “Plant response rating, Pigweed” value [7, 29] was 100 and the “Corn plant response rating” value (corn (Zea mays); [27]) was 0. The “Plant response rating, Corn” value (corn (Zea mays); [28]) was 40, the “Plant response rating, Corn” value (corn (Zea mays); [17]) was 0 and the “Plant response rating, Corn” value (corn (Zea mays); [29]) was 0. The “Crabgrass, Large plant response rating” value [8, 27] was 70, the “Plant response rating, Crabgrass, Large” value [8, 28] was 100 and the “Plant response rating, Crabgrass, Large” value [8, 17] was 10. For the same molecule, the “Plant response rating, Crabgrass, Large” value [8, 29] was 50, the “Velvetleaf plant response rating” value [9, 27] was 100 and the “Plant response rating, Velvetleaf” value [9, 28] was 100. The “Plant response rating, Velvetleaf” value [9, 17] was 50, the “Plant response rating, Velvetleaf” value [9, 29] was 90 and the “Morningglory plant response rating” value [10, 27] was 80. For the same molecule, the “Plant response rating, Morningglory” value [10, 28] was 100, the “Plant response rating, Morningglory” value [10, 17] was 0 and the “Plant response rating, Morningglory” value [10, 29] was 30.
